According to US20250195513A1, “DEGRADATION OF IRAK4 BY CONJUGATION OF IRAK4 INHIBITORS WITH E3 LIGASE LIGAND AND METHODS OF USE” (BeiGene, Ltd., priority 2022, published 2025):

Experiments:
Type in all cases: cell-based
[1] = system: IL-6 production in human PBMC; assay: IL-6 Production Assay in Human PBMC (LPS stimulated); settings: Homo sapiens, 5 h; for Emax: maximum inhibition, read-out: IL-6 (PBMC) 5 h IMax
Outline: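 Thawed PBMC were rested overnight at 37 °C, seeded at 0.2 million cells/well and pretreated with compounds for 24 h. They were then stimulated with LPS at 10 ng/mL for 5 h. IL-6 in the supernatant was quantified by TR-FRET.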

IRAK4 [2] = target: T1, IRAK4 (Homo sapiens, UniProt Q9NWZ3); assay: IRAK4 Degradation Assay with Human Serum (Karpas299, HTRF/TR-FRET); settings: Karpas-299 in human serum, 24 hrs treatment; for DC50: read-out: IRAK4 degradtion with human serum assay DC50; for Dmax: read-out: IRAK4 degradtion with human serum assay Dmax (%)
T1 construct: endogenous in cells; host or cells: Karpas299
T1 sequence (Q9NWZ3 1-460): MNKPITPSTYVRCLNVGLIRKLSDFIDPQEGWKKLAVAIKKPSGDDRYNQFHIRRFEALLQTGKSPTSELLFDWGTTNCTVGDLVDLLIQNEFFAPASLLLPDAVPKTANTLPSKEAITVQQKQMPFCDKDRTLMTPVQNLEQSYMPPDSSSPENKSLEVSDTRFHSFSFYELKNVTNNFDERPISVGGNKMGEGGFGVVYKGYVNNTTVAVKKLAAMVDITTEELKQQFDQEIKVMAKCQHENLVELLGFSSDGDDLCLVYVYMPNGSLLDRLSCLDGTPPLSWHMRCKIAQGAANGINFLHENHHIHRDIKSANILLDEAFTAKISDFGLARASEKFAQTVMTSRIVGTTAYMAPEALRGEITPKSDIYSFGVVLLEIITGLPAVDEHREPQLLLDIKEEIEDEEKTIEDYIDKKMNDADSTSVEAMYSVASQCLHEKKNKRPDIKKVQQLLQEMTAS
Outline: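 Karpas299 cells in human AB serum (0.2 million/well) treated with serial compound dilutions for 24 h. After lysis, IRAK4 quantified by HTRF (overnight antibody incubation at room temperature, 665/620 nm read). Degradation percentage fitted to four-parameter curve to give DC50.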

[3] = system: TNF-α production in THP-1 cells; assay: TNF-α Production Assay in THP-1 Cells (LPS stimulated); settings: Homo sapiens, THP-1, 24 h; for Emax: maximum inhibition, read-out: TNF-α (THP-1) 24 h IMax
Outline: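 Cells (0.2 million/well) pretreated with compounds for 24 h, then stimulated with LPS at 1 μg/mL final for 24 h. TNF-α in culture supernatant quantified by TR-FRET immunoassay.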

IRAK4 [4] = target: T1, IRAK4; assay: IRAK4 Degradation Assay (Karpas299, HTRF/TR-FRET); settings: Karpas-299 cells; for Dmax: maximum percentage of degradation
Outline: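 Karpas299 cells at 0.2 million per well were exposed to serially diluted compounds for 24 h or 5 h, then lysed. IRAK4 remaining in lysates was quantified by HTRF (665/620 nm) after overnight antibody incubation at room temperature. Percent degradation was fitted to a four-parameter curve to give IC50 (DC50).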

[5] = 5 h treatment, read-out: IRAK4 in Karpas-299 (5 h) Dmax (%)
[6] = 5 h treatment, read-out: IRAK4 in Karpas-299 (5 h) DC50
[7] = 24 h treatment, read-out: IRAK4 in Karpas-299 (24 h) Dmax (%)
[8] = 24 h treatment, read-out: IRAK4 in Karpas-299 (24 h) DC50

| SMILES | DC50 (IRAK4 [2]) | Dmax (IRAK4 [2]) | IC50 [3] | Dmax (IRAK4 [4]; [5]) | DC50 (IRAK4 [4]; [6]) | Dmax (IRAK4 [4]; [7]) | DC50 (IRAK4 [4]; [8]) | IC50 [1] | Emax [1] | Emax [3] |
| --- | --- | --- | --- | --- | --- | --- | --- | --- | --- | --- |
| CC(C)(O)c1cc2nn([C@H]3CC[C@H](N4CCN([C@H]5C[C@H](c6cc(F)c([C@H]7CCC(=O)NC7=O)c(F)c6)C5)CC4)CC3)cc2cc1NC(=O)c1ccc2cc(C#N)cnn12 [Example 364, 3-cyano-N-(2-((1R,4r)-4-(4-((1R,3R)-3-(4-((R)-2,6-dioxopiperidin-3-yl)-3,5-difluorophenyl)cyclobutyl)piperazin-1-yl)cyclohexyl)-6-(2-hydroxypropan-2-yl)-2H-indazol-5-yl)pyrrolo[1,2-b]pyridazine-7-carboxamide] | 4.6 nM | 99% | 14 nM | 96% | 0.8 nM | 96% | 1.3 nM | 0.6 nM | 74% | 98% |
| CC(C)(O)c1cc2nn(C34CC(N5CCN(CC6CN(c7cc(F)c([C@H]8CCC(=O)NC8=O)c(F)c7)C6)CC5)(C3)C4)cc2cc1NC(=O)c1ccc2cc(C#N)cnn12 [Example 332, (R)-3-cyano-N-(2-(3-(4-((1-(4-(2,6-dioxopiperidin-3-yl)-3,5-difluorophenyl)azetidin-3-yl)methyl)piperazin-1-yl)bicyclo[1.1.1]pentan-1-yl)-6-(2-hydroxypropan-2-yl)-2H-indazol-5-yl)pyrrolo[1,2-b]pyridazine-7-carboxamide] | 10 nM | 101% | 7.6 nM | 97% | 1.5 nM | 97% | 0.6 nM | 1.4 nM | 70% | 93% |
| CC(C)(O)c1cc2nn(C34CCC(N5CCN(C6CCN(c7cc(F)c([C@H]8CCC(=O)NC8=O)c(F)c7)CC6)CC5)(CC3)CC4)cc2cc1NC(=O)c1ccc2cc(C#N)cnn12 [Example 333, (R)-3-cyano-N-(2-(4-(4-(1-(4-(2,6-dioxopiperidin-3-yl)-3,5-difluorophenyl)piperidin-4-yl)piperazin-1-yl)bicyclo[2.2.2]octan-1-yl)-6-(2-hydroxypropan-2-yl)-2H-indazol-5-yl)pyrrolo[1,2-b]pyridazine-7-carboxamide] | 23 nM | 93% | 10 nM | 98% | 3.9 nM | 97% | 2.4 nM | 4.7 nM | 62% | 96% |
| C[C@@H]1CN(CCc2cc(F)c([C@H]3CCC(=O)NC3=O)c(F)c2)CCN1[C@H]1CC[C@H](n2cc3cc(NC(=O)c4ccc5cc(C#N)cnn45)c(C(C)(C)O)cc3n2)CC1 [Example 299, 3-cyano-N-(2-((1R,4r)-4-((R)-4-(4-((R)-2,6-dioxopiperidin-3-yl)-3,5-difluorophenethyl)-2-methylpiperazin-1-yl)cyclohexyl)-6-(2-hydroxypropan-2-yl)-2H-indazol-5-yl)pyrrolo[1,2-b]pyridazine-7-carboxamide] | 4.8 nM | 99% | 43 nM |  |  | 98% | 0.8 nM | 4 nM | 74% | 94% |
| COC[C@H]1CN([C@H]2CC[C@H](n3cc4cc(NC(=O)c5ccc6cc(C#N)cnn56)c(C(C)(C)O)cc4n3)CC2)CCN1CCc1cc(F)c([C@H]2CCC(=O)NC2=O)c(F)c1 [Example 314, 3-cyano-N-(2-((1R,4r)-4-((R)-4-(4-((R)-2,6-dioxopiperidin-3-yl)-3,5-difluorophenethyl)-3-(methoxymethyl)piperazin-1-yl)cyclohexyl)-6-(2-hydroxypropan-2-yl)-2H-indazol-5-yl)pyrrolo[1,2-b]pyridazine-7-carboxamide] | 3.4 nM | 98% | 26 nM |  |  | 98% | 0.6 nM | 2.3 nM | 51% | 88% |
| CC(C)(O)c1cc2nn([C@H]3CC[C@H](N4CCN(CC5CN(c6cc(F)c([C@H]7CCC(=O)NC7=O)c(F)c6)C5)CC4)CC3)cc2cc1NC(=O)c1ccc2cc(C#N)cnn12 [Example 290, 3-cyano-N-(2-((1r,4r)-4-(4-((1-(4-((R)-2,6-dioxopiperidin-3-yl)-3,5-difluorophenyl)azetidin-3-yl)methyl)piperazin-1-yl)cyclohexyl)-6-(2-hydroxypropan-2-yl)-2H-indazol-5-yl)pyrrolo[1,2-b]pyridazine-7-carboxamide] | 4.4 nM | 99% | 9 nM |  |  | 98% | 0.6 nM | 0.8 nM | 71% | 96% |
| COC[C@@H]1CN(CC2CN(c3cc(F)c([C@H]4CCC(=O)NC4=O)c(F)c3)C2)CCN1[C@H]1CC[C@H](n2cc3cc(NC(=O)c4ccc5cc(C#N)cnn45)c(C(C)(C)O)cc3n2)CC1 [Example 326, 3-cyano-N-(2-((1S,4r)-4-((S)-4-((1-(4-((R)-2,6-dioxopiperidin-3-yl)-3,5-difluorophenyl)azetidin-3-yl)methyl)-2-(methoxymethyl)piperazin-1-yl)cyclohexyl)-6-(2-hydroxypropan-2-yl)-2H-indazol-5-yl)pyrrolo[1,2-b]pyridazine-7-carboxamide] | 2.9 nM | 95% | 13 nM | 97% | 1.9 nM | 100% | 0.7 nM | 1.9 nM | 65% | 99% |
| COC[C@@H]1CN([C@H]2CC[C@H](n3cc4cc(NC(=O)c5ccc6cc(C#N)cnn56)c(C(C)(C)O)cc4n3)CC2)CCN1CCc1cc(F)c([C@H]2CCC(=O)NC2=O)c(F)c1 [Example 320] | 4.1 nM | 98% | 43 nM |  |  | 99% | 1 nM | 9.2 nM | 65% | 85% |

More lines, in order of falling DC50 (IRAK4 [2]), values ahead:

| DC50 (IRAK4 [2]) | Dmax (IRAK4 [2]) | IC50 [3] | Dmax (IRAK4 [4]; [5]) | DC50 (IRAK4 [4]; [6]) | Dmax (IRAK4 [4]; [7]) | DC50 (IRAK4 [4]; [8]) | SMILES | IC50 [1] | Emax [1] | Emax [3] |
| --- | --- | --- | --- | --- | --- | --- | --- | --- | --- | --- |
| 19 nM | 101% | 42 nM | 98% | 12 nM | 97% | 0.7 nM | COC[C@H]1CN(CC2CN(c3cc(F)c([C@H]4CCC(=O)NC4=O)c(F)c3)C2)CCN1[C@H]1CC[C@H](n2cc3cc(NC(=O)c4ccc5cc(C#N)cnn45)c(C(C)(C)O)cc3n2)CC1 [Example 322, 3-cyano-N-(2-((1R,4r)-4-((R)-4-((1-(4-((R)-2,6-dioxopiperidin-3-yl)-3,5-difluorophenyl)azetidin-3-yl)methyl)-2-(methoxymethyl)piperazin-1-yl)cyclohexyl)-6-(2-hydroxypropan-2-yl)-2H-indazol-5-yl)pyrrolo[1,2-b]pyridazine-7-carboxamide] | 9.7 nM | 81% | 94% |
| 8.8 nM | 93% | 20 nM | 99% | 5.3 nM | 99% | 0.6 nM | CC(C)(O)c1cc2nn([C@H]3CC[C@H](N4CCN(C5CCN(c6cc(F)c(C7CCC(=O)NC7=O)c(F)c6)CC5)CC4)CC3)cc2cc1NC(=O)c1ccc2cc(C#N)cnn12 (stereo partly drawn) [Example 196, 3-cyano-N-(2-((1r,4r)-4-(4-(1-(4-((R)-2,6-dioxopiperidin-3-yl)-3,5-difluorophenyl)piperidin-4-yl)piperazin-1-yl)cyclohexyl)-6-(2-hydroxypropan-2-yl)-2H-indazol-5-yl)pyrrolo[1,2-b]pyridazine-7-carboxamide] | 11 nM | 72% | 86% |
| 2.6 nM | 98% | 21 nM | 97% | 1.9 nM | 97% | 2.3 nM | Cc1nc(C2CCC(=O)NC2=O)ccc1N1CCC(N2CCN([C@H]3CC[C@H](n4cc5cc(NC(=O)c6ccc7cc(C#N)cnn67)c(C(C)(C)O)cc5n4)CC3)CC2)CC1 (stereo partly drawn) [Example 398, 3-cyano-N-(2-((1r,4r)-4-(4-(1-(6-(2,6-dioxopiperidin-3-yl)-2-methylpyridin-3-yl)piperidin-4-yl)piperazin-1-yl)cyclohexyl)-6-(2-hydroxypropan-2-yl)-2H-indazol-5-yl)pyrrolo[1,2-b]pyridazine-7-carboxamide] | 2.4 nM | 70% | 97% |
